# Source: patent US20210299156A1 (priority 2020, published 2021)
# Read-outs that look alike come from different tables or passages of the source.
# Legend:
# SARS-CoV-2 [1] = assay type: cell-based; settings: for EC50: MOI 0.1
# SARS-CoV-2 [2] = assay type: cell-based; settings: EPIAIRWAY tissue pretreated with 2.5, 25, 250 μM; MOI 0.1
# [3] = biological target: plasma membrane nucleolin (Homo sapiens, UniProt P19338); parameters: key: 1: Indicates a good plasma membrane nucleolin-binding GRO.; 2: Indicates a nucleolin control (non-plasma membrane nucleolin binding); settings: cited from earlier work
# Sequence of plasma membrane nucleolin (P19338 whole entry): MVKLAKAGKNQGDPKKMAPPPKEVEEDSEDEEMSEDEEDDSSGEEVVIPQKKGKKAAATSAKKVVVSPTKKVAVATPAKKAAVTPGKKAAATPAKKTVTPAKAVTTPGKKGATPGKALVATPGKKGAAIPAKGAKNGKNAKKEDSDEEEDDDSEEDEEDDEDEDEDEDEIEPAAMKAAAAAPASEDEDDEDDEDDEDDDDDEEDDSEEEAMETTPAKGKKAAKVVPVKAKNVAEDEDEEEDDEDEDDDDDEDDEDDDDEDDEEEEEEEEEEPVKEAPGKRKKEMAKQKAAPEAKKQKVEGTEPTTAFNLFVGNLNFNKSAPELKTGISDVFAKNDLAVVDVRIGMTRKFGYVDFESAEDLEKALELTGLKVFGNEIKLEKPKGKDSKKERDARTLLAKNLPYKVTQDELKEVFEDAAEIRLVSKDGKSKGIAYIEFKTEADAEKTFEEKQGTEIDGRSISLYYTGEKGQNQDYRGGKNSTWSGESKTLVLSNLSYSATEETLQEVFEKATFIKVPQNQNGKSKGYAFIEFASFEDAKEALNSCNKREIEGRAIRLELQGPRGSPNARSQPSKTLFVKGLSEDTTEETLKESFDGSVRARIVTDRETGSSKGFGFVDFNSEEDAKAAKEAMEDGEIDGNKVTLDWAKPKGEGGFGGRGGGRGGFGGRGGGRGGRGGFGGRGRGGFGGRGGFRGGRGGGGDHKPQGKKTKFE
# SARS-CoV-2 [4] = system: SARS-CoV-2; parameters: species or system K18-hACE2 mice; settings: mouse, in vivo
# SARS-CoV-2 [5] = assay type: in vivo, K18-hACE2 mice; settings: 12 mg/kg per day intraperitoneal osmotic pump; 7 days after virus challenge
# SARS-CoV-2 [6] = assay type: cell-based; settings: MOI 0.1
# SARS-CoV-2 [7] = assay type: cell-based; settings: EPINASAL tissue pretreated with 2.5, 25, 250 μM; MOI 0.1
# SARS-CoV-2 [8] = settings: VERO E6 cells
# [9] = PEP: drug 4 hours after virus challenge
# [10] = PrEP: drug 4 hours before virus challenge
substance,measurement,setting,value
"AS1411: GRO nucleolin-binding DNA aptamer, SEQ ID NO:10, ggtggtggtg gttgtggtgg tggtgg",protective effect compared to the vehicle group,"SARS-CoV-2 [1]; 2.5 μM and 20 μM, EPIAIRWAY tissue, FIG. 29",reduction of virus
same,EC50,"SARS-CoV-2 [1]; 72 Hours Post-Infection, EPIAIRWAY tissue",0.942 µM
same,EC50,"SARS-CoV-2 [1]; 96 Hours Post-Infection, EPIAIRWAY tissue",1.41 µM
same,EC50,"SARS-CoV-2 [1]; 120 Hours Post-Infection, EPIAIRWAY tissue",0.65 µM
same,interference between AS1411 and remdesivir in combination,"SARS-CoV-2 [1]; EPIAIRWAY tissue TCID50/ml, FIG. 27",do not interfere with each other
same,interference between AS1411 and dexamethasone in combination,"SARS-CoV-2 [1]; EPIAIRWAY tissue TCID50/ml, FIG. 28",do not interfere with each other
same,reduction in viral titer,SARS-CoV-2 [2],≤ 5 logs fold
same,toxicity in EPIAIRWAY model,EPIAIRWAY™ tissue,not toxic
same,plasma membrane nucleolin binding (footnote designation),[3],GRO26B^1
same,inhibiting the virus (TCID50/ml),SARS-CoV-2 [4],"effective for inhibiting the virus in the nasal passage and kidneys of the mice, although not as effectively as in the lungs"
same,inhibiting the virus in the brain (TCID50/ml),SARS-CoV-2 [4],not effective for inhibiting the virus in the brain
same,inhibiting the virus in the lungs (TCID50/ml),SARS-CoV-2 [4],effective for inhibiting the virus in the lungs
same,survival rate,SARS-CoV-2 [5],100%
same,EC50,SARS-CoV-2 [6]; [9],1.5 µM
same,EC90,SARS-CoV-2 [6]; [9],3.2 µM
same,EC50,SARS-CoV-2 [6]; [10],0.986 µM
same,EC90,SARS-CoV-2 [6]; [10],2.16 µM
same,reduction in viral titer,SARS-CoV-2 [7],≤ 3.5 logs fold
same,concentration at which inhibition of SARS-CoV-2 virus-induced syncytium formation begins,"SARS-CoV-2 [8]; MOI 0.01, 72 hours",≥ 0.625 µM
same,dose at which cytopathic effects of SARS-CoV-2 are markedly reduced,"SARS-CoV-2 [8]; MOI 0.01, 72 hours",≥ 0.625 µM
same,cytotoxicity,SARS-CoV-2 [8]; from 0.625 μM,without cytotoxicity
